This passage reports quiescence-promoting activity results from patent US20200268804A1, “METHODS AND COMPOSITIONS TO MAINTAIN STEM CELL QUIESCENCE” (The Board of Trustees of the Leland Stanford Junior …, priority 2016, published 2020).

In the test the test system is quiescent MuSCs. The test is described as follows: Q-RT-PCR screening of candidate molecules for promotion of MuSC quiescence. Conditions: 500 quiescent MuSCs cultured 2.5 days with the molecule; gene expression signature. The test is classed as cell-based, mouse. The text has this: FIG. 8. Screening of molecules titrated at different concentrations. Heat map analysis of gene expression profiles obtained from MuSCs cultured in different concentrations of candidate molecules. In 96 well plates, 500 MuSCs were directly isolated by FACS and cultured in the presence of the candidate molecules titrated at different concentrations. After 2.5 days, cells were collected for combinatorial Q-RT-PCR to screen for the conditions that result mostly closely resemble freshly isolated MuSCs based on the gene expression profiles. A heat map for absolute deviations from expression levels of freshly isolated quiescent MuSCs (QSC) is shown. On the X axis, the molecules tested and the different dilutions employed from the working concentrations are indicated as in FIG. 16. On the Y axis the names of the genes that were tested are listed. The gene names were organized in general functional groups. Each functional group is based on the main function and role in MuSCs.
Knowing that quiescent MuSCs have a unique transcriptional signature, we employed combinatorial QRT-PCR to screen for molecules that, when added to the medium, would promote MuSC quiescence. […]
Single Cell Q-RT-PCR. […] Biomark data was analyzed using Q-RT-PCR Analysis software (Fluidigm). […] For each amplicon, a limit of detection (LOD) was determined by running 10-fold serial dilutions of embryonic cDNA in 6 replicates. […]

Structures are written as SMILES.

As to `Nc1nc(Nc2ccc(S(N)(=O)=O)cc2)nn1C(=O)c1c(F)cccc1F` [JMJ-7706621], the quiescence-promoting activity result is “novel quiescence-promoting activity”.
